Assay results from ChEMBL document CHEMBL1201862, “PubChem BioAssay data set” (2004).
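Dose response: 5 concentrations. Exposure: 48 h. Format: 96-well plates. Endpoint: linear interpolation; highest concentration if not reached. GI50 = concentration required for 50% inhibition of growth.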 The source made the active and inactive calls. Cut-off read from the data, not from the text of the source: active = GI50 up to about 1.1 µM and inactive = higher.

Columns and labels:
Assay in all cases: NCI-60 cell line screen, 48 h
U-251 = tested on: U-251
OVCAR-5 = tested on: OVCAR-5
HOP-18 = tested on: HOP-18
DMS-114 = tested on: DMS-114
NCI-H522 = tested on: NCI-H522
EKVX = tested on: EKVX
M19-MEL = tested on: M19-MEL
K562 = tested on: K562
CCRF-CEM = tested on: CCRF-CEM
CAKI-1 = tested on: CAKI-1
DMS-273 = tested on: DMS-273
SNB-75 = tested on: SNB-75
A498 = tested on: A498
HOP-62 = tested on: HOP-62
A549 = tested on: A549
UO-31 = tested on: UO-31
SNB-78 = tested on: SNB-78
Malme-3M = tested on: Malme-3M
HCC 2998 = tested on: HCC 2998
NCI-H226 = tested on: NCI-H226
SK-MEL-2 = tested on: SK-MEL-2
SF-268 = tested on: SF-268
HOP-92 = tested on: HOP-92
DLD-1 = tested on: DLD-1
KM12 = tested on: KM12
OVCAR-8 = tested on: OVCAR-8
SK-OV-3 = tested on: SK-OV-3
UACC-257 = tested on: UACC-257
UACC-62 = tested on: UACC-62
LOX IMVI = tested on: LOX IMVI
XF498 = tested on: XF498
MCF7 = tested on: MCF7
RPMI-8226 = tested on: RPMI-8226
SK-MEL-5 = tested on: SK-MEL-5
HT-29 = tested on: HT-29
NCI-H460 = tested on: NCI-H460
SF-295 = tested on: SF-295
SW-620 = tested on: SW-620
MOLT-4 = tested on: MOLT-4
HCT-15 = tested on: HCT-15
OVCAR-3 = tested on: OVCAR-3
HL-60 = tested on: HL-60
NCI-H23 = tested on: NCI-H23
OVCAR-4 = tested on: OVCAR-4
IGROV-1 = tested on: IGROV-1
NCI/ADR-RES = tested on: NCI/ADR-RES
KM-20L2 = tested on: KM-20L2
COLO 205 = tested on: COLO 205
SN12C = tested on: SN12C
HCT-116 = tested on: HCT-116
SK-MEL-28 = tested on: SK-MEL-28
SF-539 = tested on: SF-539
SNB-19 = tested on: SNB-19
RXF 393 = tested on: RXF 393
LXFL 529 = tested on: LXFL 529
M14 = tested on: M14
ACHN = tested on: ACHN
786-0 = tested on: 786-0
TK-10 = tested on: TK-10

CCOC(=O)C[n+]1ccc2c([nH]c3cc(OC)ccc32)c1C
GI50 (U-251): > 77.4 µM (inactive) | GI50 (OVCAR-5): > 100 µM (inactive) | GI50 (HOP-18): > 100 µM (inactive) | GI50 (DMS-114): > 83.2 µM (inactive) | GI50 (NCI-H522): 68.2 µM (inactive) | GI50 (EKVX): > 100 µM (inactive) | GI50 (M19-MEL): > 100 µM (inactive) | GI50 (K562): > 100 µM (inactive) | GI50 (CCRF-CEM): > 96.2 µM (inactive) | GI50 (CAKI-1): > 100 µM (inactive) | GI50 (DMS-273): > 100 µM (inactive) | GI50 (SNB-75): > 100 µM (inactive) | GI50 (A498): > 81.5 µM (inactive) | GI50 (HOP-62): > 78.3 µM (inactive) | GI50 (A549): > 100 µM (inactive) | GI50 (UO-31): > 39.4 µM (inactive) | GI50 (SNB-78): > 100 µM (inactive) | GI50 (Malme-3M): > 100 µM (inactive) | GI50 (HCC 2998): > 100 µM (inactive) | GI50 (NCI-H226): 36.8 µM (inactive) | GI50 (SK-MEL-2): > 100 µM (inactive) | GI50 (SF-268): > 100 µM (inactive) | GI50 (HOP-92): > 70.3 µM (inactive) | GI50 (DLD-1): > 100 µM (inactive) | GI50 (KM12): > 100 µM (inactive) | GI50 (OVCAR-8): > 87.1 µM (inactive) | GI50 (SK-OV-3): > 100 µM (inactive) | GI50 (UACC-257): > 100 µM (inactive) | GI50 (UACC-62): > 100 µM (inactive) | GI50 (LOX IMVI): 71.8 µM (inactive) | GI50 (XF498): 25.9 µM (inactive) | GI50 (MCF7): > 95.5 µM (inactive) | GI50 (RPMI-8226): > 100 µM (inactive) | GI50 (SK-MEL-5): > 77.8 µM (inactive) | GI50 (HT-29): > 100 µM (inactive) | GI50 (NCI-H460): > 88.1 µM (inactive) | GI50 (SF-295): 69.2 µM (inactive) | GI50 (SW-620): > 100 µM (inactive) | GI50 (MOLT-4): > 67 µM (inactive) | GI50 (HCT-15): > 100 µM | GI50 (OVCAR-3): > 79.1 µM (inactive) | GI50 (HL-60): > 75.7 µM (inactive) | GI50 (NCI-H23): > 100 µM (inactive) | GI50 (OVCAR-4): > 100 µM (inactive) | GI50 (IGROV-1): > 100 µM (inactive) | GI50 (NCI/ADR-RES): > 100 µM (inactive) | GI50 (KM-20L2): > 65.2 µM (inactive) | GI50 (COLO 205): > 71.6 µM (inactive) | GI50 (SN12C): > 81.5 µM (inactive) | GI50 (HCT-116): 61 µM (inactive) | GI50 (SK-MEL-28): > 100 µM (inactive) | GI50 (SF-539): > 100 µM (inactive) | GI50 (SNB-19): > 100 µM (inactive) | GI50 (RXF 393): > 100 µM (inactive)

O=c1cccccc1O.O=c1cccccc1O.O=c1cccccc1O.[SiH4]
GI50 (U-251): 21.3 µM (inactive) | GI50 (OVCAR-5): 28.6 µM (inactive) | GI50 (HOP-18): 65.9 µM (inactive) | GI50 (LXFL 529): 18.8 µM (inactive) | GI50 (DMS-114): 11.7 µM (inactive) | GI50 (NCI-H522): 2.33 µM (inactive) | GI50 (EKVX): < 0.01 µM (active) | GI50 (M19-MEL): 18.8 µM (inactive) | GI50 (K562): 6.87 µM (inactive) | GI50 (CCRF-CEM): 2.64 µM (inactive) | GI50 (CAKI-1): 56.2 µM (inactive) | GI50 (DMS-273): 14.5 µM (inactive) | GI50 (SNB-75): 29.1 µM (inactive) | GI50 (A498): 34.4 µM (inactive) | GI50 (HOP-62): 28.4 µM (inactive) | GI50 (A549): 25.6 µM (inactive) | GI50 (UO-31): 25.2 µM (inactive) | GI50 (Malme-3M): 54.6 µM (inactive) | GI50 (HCC 2998): 32.4 µM (inactive) | GI50 (SF-268): 42.9 µM (inactive) | GI50 (HOP-92): 37.9 µM (inactive) | GI50 (DLD-1): 6.43 µM (inactive) | GI50 (KM12): 26.8 µM (inactive) | GI50 (OVCAR-8): 11.5 µM (inactive) | GI50 (SK-OV-3): 31.8 µM (inactive) | GI50 (UACC-257): 21 µM (inactive) | GI50 (UACC-62): 0.822 µM (active) | GI50 (XF498): 17.7 µM (inactive) | GI50 (RPMI-8226): 9.73 µM (inactive) | GI50 (SK-MEL-5): 24.8 µM (inactive) | GI50 (M14): 33.5 µM (inactive) | GI50 (HT-29): 33.4 µM (inactive) | GI50 (SF-295): 41.2 µM (inactive) | GI50 (ACHN): 10 µM (inactive) | GI50 (786-0): 33 µM (inactive) | GI50 (SW-620): 10.4 µM (inactive) | GI50 (MOLT-4): 5.74 µM (inactive) | GI50 (OVCAR-3): 24.2 µM (inactive) | GI50 (NCI-H23): 16.5 µM (inactive) | GI50 (TK-10): 74 µM (inactive) | GI50 (OVCAR-4): 11.9 µM (inactive) | GI50 (IGROV-1): 12.8 µM (inactive) | GI50 (KM-20L2): 3.75 µM (inactive) | GI50 (COLO 205): 11 µM (inactive) | GI50 (SN12C): 25.3 µM (inactive) | GI50 (HCT-116): 13.6 µM (inactive) | GI50 (SK-MEL-28): 55.1 µM (inactive) | GI50 (SF-539): 18.3 µM (inactive) | GI50 (SNB-19): > 100 µM (inactive)
